Experimental data reported in US12324812B2, “Glucopyranosyl derivatives and their uses” (SUNSHINE LAKE PHARMA CO., LTD., priority 2019, dated 2025).

Legend:
human SGLT1 = human SGLT1 (Homo sapiens (Human), UniProt P13866); experiment: Test of inhibitory activity on SGLT1 (14C-AMG uptake in CHO cells expressing human SGLT1); type: cell-based; conditions: CHO cells expressing human SGLT1, 0.5 μM 14C-AMG, 37° C. 1 hour
Description: 1. Test of Inhibitory Activity on SGLT1
the following methods can be used to determine the inhibitory activity of the compounds described in the invention on SGLT-1.
mock-transfected FIP-in CHO cells (3×10^4) and CHO cells expressing human SGLT1 gene were seeded into 96-well plates respectively. The cells were incubated for 12 hours. Each well of the 96-well plate was washed with 150 μL of sodium-free buffer once. To each well was added 50 μL of sodium-containing buffer containing test compounds of different concentrations and 0.5 μM […]. The incubation mixture was incubated at 37° C. for 1 hour. To each well was added 150 μL of precooled sodium-free buffer to terminate the reaction. The cell pellet was washed with sodium-free buffer three times and the residual liquid in well was removed. To each well was added 20 μL of precooled 100 mM NaOH. The 96-well plate was vibrated at 900 rpm for 5 minutes. Scintillation fluid (80 μL) was added to each well which was then vibrated at 600 rpm for 5 minutes. The amount of 14C-AMG was quantitatively detected using liquid scintillation.

SD rats = experiment: Oral glucose tolerance test in SD rats; type: in vivo, rat; conditions: male SD rats, 0.1 mg/kg once by gavage, glucose 4.0 g/kg; decline rate of AUCGlu 0-60 min after sugar loading
Description: 2. Oral Glucose Tolerance Test and UrinaR^y Glucose Excretion Test
The following methods were used to evaluate the effects of the compounds of the invention on improving oral glucose tolerance and glycosuria excretion.
Test method: The weight and the fasting blood glucose levels of male SD rats were measured after an overnight 15-hour fast. The rats were grouped by their weights and fasting plasma glucose levels. Each test group was administered with the corresponding test compound once by gavage at a dose of 0.1 mg/Kg, and the blank control group was administered solvent. After 30 minutes, the blood glucose level (i.e. zeropoint blood glucose) of each group was measured, and then each group was immediately administered glucose (4.0 g/kg) once by gavage. The blood was drawn from the tail vein at 15, 30 and 60 minutes after glucose administration and the blood glucose concentrations of SD rats were measured continuously on blood-glucose meter. The decline rate of the area under the blood sugar curve within 60 minutes (AUCGlu 0-60 min) after sugar loading was calculated.
After blood glucose level at 60 min time point was measured, each group was placed in a metabolism cage, and the urine was collected during 1.5 hours to 24 hours and 24 hours to 48 hours after drug administration with the metabolism cage as the unit. The urine volume of each metabolism cage at each point was recorded. The urine was collected and centrifuged to obtain the supernatant. The […] had free access to food and water during the urine collection. The urine glucose concentration of SD rats at each time point was determined on automatic biochemical analyzer.

Sequence of human SGLT1 (P13866 whole entry): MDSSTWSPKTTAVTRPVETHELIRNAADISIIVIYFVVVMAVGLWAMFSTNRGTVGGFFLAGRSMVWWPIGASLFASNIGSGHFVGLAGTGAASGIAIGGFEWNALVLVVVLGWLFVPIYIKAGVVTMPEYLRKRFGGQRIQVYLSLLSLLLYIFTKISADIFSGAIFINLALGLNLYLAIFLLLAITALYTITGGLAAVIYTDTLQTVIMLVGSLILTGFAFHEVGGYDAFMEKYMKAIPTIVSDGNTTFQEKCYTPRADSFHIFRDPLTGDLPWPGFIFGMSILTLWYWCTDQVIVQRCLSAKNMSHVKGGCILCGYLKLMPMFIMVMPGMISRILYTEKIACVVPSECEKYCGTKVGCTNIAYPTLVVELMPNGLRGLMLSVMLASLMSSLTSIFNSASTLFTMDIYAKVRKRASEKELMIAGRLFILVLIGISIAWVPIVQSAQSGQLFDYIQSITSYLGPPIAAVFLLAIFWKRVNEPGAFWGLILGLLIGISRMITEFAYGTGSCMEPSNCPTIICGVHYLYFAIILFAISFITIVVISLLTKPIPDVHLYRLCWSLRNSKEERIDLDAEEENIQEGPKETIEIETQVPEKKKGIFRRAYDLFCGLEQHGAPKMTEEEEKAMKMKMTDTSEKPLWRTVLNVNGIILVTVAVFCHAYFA

## CC[C@H]1O[C@@H](c2ccc(C)c(Cc3ccc(CCCC(=O)NC4(C(=O)NCCN(C)C)CCCCC4)cc3)c2)[C@H](O)[C@@H](O)[C@@H]1O [Example 1, N-(2-dimethylaminoethyl)-1-[4-[4-[[5-[(2S, 3R, 4S, 5S, 6R)-6-ethyl-3,4,5-trihydroxy-tetrahydropyran-2-yl]-2-methyl-phenyl]methyl]phenyl]butyrylamino] cyclohexyl formamide]
Human SGLT1
  IC50: 0.22 nM
SD rats
  hypoglycemic rate: 31.28%

## CCC[C@H]1O[C@@H](c2ccc(C)c(Cc3ccc(CCCC(=O)NC4(C(=O)NCCN(C)C)CCCCC4)cc3)c2)[C@H](O)[C@@H](O)[C@@H]1O [Example 3, N-(2-dimethylaminoethyl)-1-[4-[4-[[2-methyl-5-[(2S, 3R, 4S, 5S, 6R)-3,4,5-trihydroxy-6-propyl-tetrahydropyran-2-yl]phenyl]methyl]phenyl]butyrylamino] cyclohexylformamide]
Human SGLT1
  IC50: 0.25 nM
SD rats
  hypoglycemic rate: 29.42%

## Cc1ccc([C@]23OC[C@](CO)(O2)[C@@H](O)[C@H](O)[C@H]3O)cc1Cc1ccc(CCCC(=O)NC2(C(=O)NCCN(C)C)CCCCC2)cc1 [Example 4, N-(2-dimethylaminoethyl)-1-[4-[4-[[2-methyl-5-[(1S, 2S, 3S, 4R, 5S)-2,3,4,-trihydroxy-1-(hydroxymethyl)-6,8-dioxabicyclo [3.2.1]octane-5-yl]phenyl]methyl]phenyl]butyrylamino] cyclohexyl formamide]
Human SGLT1
  IC50: 1.18 nM
SD rats
  hypoglycemic rate: 26.25%
